From publication PMC12136037, “Type II kinase inhibitors that target Parkinson’s disease–associated LRRK2” (Science Advances, 2025)

Assays:
Assay in all cases: DSF 100 kinase selectivity screen;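 also: compound tested at 20 µM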
Format in all cases: binding
[1] = biological target: T1, ~100 representative kinases (Homo sapiens, UniProt O75582); details: Protein RPS6KA5; DSF; average of three replicates
T1 construct: Recombinant protein kinase domains with a concentration of 2 μM
Procedure, shortened: (§1)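 Each kinase domain, at 2 μM, is mixed with 20 μM test compound and SYPRO Orange in Hepes (20 mM, pH 7.5) with 500 mM NaCl. Temperature is then raised at 3°C/min and fluorescence-monitored unfolding yields the melting temperature change, ΔTm in degrees Celsius.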

[2] = biological target: T2, ~100 representative kinases (Homo sapiens, UniProt P17948); details: protein FLT1; average of three replicates
T2 construct: Recombinant protein kinase domains with a concentration of 2 μM
Procedure, shortened: as §1

[3] = biological target: T3, ~100 representative kinases (Homo sapiens, UniProt P21675); details: Protein TAF1; DSF; average of three replicates
T3 construct: Recombinant protein kinase domains with a concentration of 2 μM
Procedure, shortened: as §1

[4] = biological target: T4, ~100 representative kinases (Homo sapiens, UniProt P33981); details: Protein TTK; DSF; average of three replicates
T4 construct: Recombinant protein kinase domains with a concentration of 2 μM
T4 sequence (P33981 1-857): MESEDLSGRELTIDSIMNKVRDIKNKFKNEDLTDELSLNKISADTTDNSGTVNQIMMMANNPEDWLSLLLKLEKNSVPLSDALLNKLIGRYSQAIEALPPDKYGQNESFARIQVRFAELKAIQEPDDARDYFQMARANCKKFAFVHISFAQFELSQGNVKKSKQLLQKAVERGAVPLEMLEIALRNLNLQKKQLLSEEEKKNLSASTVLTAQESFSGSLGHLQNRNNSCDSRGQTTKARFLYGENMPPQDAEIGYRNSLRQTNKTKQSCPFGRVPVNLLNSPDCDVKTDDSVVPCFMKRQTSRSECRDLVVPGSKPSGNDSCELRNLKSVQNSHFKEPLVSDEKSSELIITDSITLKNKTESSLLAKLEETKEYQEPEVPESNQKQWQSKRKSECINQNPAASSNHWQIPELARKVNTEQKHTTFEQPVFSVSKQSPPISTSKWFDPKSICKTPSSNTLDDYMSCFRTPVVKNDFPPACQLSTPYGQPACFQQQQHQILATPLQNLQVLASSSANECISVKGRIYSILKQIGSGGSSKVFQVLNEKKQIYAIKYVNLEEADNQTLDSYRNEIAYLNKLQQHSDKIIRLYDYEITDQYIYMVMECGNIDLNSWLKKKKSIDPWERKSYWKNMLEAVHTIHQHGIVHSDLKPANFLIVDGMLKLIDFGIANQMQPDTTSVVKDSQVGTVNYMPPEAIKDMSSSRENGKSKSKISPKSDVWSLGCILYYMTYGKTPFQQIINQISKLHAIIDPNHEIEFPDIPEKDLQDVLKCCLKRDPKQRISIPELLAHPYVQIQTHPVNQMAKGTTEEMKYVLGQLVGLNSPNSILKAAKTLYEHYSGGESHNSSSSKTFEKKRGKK
Procedure, shortened: as §1

[5] = biological target: T5, ~100 representative kinases (Homo sapiens, UniProt Q12866); details: protein MERTK; average of three replicates
T5 construct: Recombinant protein kinase domains with a concentration of 2 μM
T5 sequence (Q12866 21-999): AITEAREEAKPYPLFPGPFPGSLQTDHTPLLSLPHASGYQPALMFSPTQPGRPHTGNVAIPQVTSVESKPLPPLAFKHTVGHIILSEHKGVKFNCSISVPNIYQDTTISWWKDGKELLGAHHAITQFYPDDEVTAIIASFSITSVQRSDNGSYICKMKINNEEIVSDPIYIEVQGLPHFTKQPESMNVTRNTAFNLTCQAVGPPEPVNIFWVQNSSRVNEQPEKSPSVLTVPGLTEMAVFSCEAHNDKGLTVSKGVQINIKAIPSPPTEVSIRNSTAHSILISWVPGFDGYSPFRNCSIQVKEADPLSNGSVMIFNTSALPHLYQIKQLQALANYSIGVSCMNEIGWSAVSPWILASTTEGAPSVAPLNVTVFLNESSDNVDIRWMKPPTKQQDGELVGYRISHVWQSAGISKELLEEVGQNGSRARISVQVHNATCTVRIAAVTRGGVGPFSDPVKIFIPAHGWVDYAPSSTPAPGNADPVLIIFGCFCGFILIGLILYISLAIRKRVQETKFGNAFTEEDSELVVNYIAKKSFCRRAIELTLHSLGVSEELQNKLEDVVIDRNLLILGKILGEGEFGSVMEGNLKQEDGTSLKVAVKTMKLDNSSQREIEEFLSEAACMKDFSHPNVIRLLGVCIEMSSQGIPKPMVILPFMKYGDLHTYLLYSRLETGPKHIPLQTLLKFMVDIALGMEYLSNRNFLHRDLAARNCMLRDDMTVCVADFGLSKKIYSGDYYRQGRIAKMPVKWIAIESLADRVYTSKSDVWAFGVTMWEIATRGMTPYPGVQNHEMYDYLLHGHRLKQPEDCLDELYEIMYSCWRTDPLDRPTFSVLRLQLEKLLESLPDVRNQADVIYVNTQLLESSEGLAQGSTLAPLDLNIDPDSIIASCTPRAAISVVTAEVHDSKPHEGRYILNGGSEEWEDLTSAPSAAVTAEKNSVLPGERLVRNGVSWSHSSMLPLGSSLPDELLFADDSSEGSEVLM
Procedure, shortened: as §1

[6] = biological target: T6, ~100 representative kinases (Homo sapiens, UniProt Q8TDX7); details: protein NEK7; average of three replicates
T6 construct: Recombinant protein kinase domains with a concentration of 2 μM
Procedure, shortened: as §1

[7] = biological target: T7, ~100 representative kinases (Homo sapiens, UniProt Q9UEE5); details: Protein STK17A; DSF; average of three replicates
T7 construct: Recombinant protein kinase domains with a concentration of 2 μM
T7 sequence (Q9UEE5 1-414): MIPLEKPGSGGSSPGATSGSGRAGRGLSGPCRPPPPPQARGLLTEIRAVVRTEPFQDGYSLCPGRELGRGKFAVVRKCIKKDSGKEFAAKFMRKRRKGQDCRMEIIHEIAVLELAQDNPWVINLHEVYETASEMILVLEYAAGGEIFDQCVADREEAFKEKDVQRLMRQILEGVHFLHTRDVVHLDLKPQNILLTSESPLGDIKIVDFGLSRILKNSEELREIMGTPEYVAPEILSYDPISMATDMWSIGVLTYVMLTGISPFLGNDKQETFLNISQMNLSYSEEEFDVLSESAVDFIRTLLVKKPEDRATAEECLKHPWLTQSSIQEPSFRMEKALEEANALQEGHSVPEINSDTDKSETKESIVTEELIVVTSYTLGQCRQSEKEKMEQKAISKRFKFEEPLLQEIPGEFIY
Procedure, shortened: as §1

[8] = biological target: T8, ~100 representative kinases (Homo sapiens, UniProt Q9H2G2); details: Protein SLK; DSF; average of three replicates
T8 construct: Recombinant protein kinase domains with a concentration of 2 μM
Procedure, shortened: as §1

T2 sequence (P17948 27-1338): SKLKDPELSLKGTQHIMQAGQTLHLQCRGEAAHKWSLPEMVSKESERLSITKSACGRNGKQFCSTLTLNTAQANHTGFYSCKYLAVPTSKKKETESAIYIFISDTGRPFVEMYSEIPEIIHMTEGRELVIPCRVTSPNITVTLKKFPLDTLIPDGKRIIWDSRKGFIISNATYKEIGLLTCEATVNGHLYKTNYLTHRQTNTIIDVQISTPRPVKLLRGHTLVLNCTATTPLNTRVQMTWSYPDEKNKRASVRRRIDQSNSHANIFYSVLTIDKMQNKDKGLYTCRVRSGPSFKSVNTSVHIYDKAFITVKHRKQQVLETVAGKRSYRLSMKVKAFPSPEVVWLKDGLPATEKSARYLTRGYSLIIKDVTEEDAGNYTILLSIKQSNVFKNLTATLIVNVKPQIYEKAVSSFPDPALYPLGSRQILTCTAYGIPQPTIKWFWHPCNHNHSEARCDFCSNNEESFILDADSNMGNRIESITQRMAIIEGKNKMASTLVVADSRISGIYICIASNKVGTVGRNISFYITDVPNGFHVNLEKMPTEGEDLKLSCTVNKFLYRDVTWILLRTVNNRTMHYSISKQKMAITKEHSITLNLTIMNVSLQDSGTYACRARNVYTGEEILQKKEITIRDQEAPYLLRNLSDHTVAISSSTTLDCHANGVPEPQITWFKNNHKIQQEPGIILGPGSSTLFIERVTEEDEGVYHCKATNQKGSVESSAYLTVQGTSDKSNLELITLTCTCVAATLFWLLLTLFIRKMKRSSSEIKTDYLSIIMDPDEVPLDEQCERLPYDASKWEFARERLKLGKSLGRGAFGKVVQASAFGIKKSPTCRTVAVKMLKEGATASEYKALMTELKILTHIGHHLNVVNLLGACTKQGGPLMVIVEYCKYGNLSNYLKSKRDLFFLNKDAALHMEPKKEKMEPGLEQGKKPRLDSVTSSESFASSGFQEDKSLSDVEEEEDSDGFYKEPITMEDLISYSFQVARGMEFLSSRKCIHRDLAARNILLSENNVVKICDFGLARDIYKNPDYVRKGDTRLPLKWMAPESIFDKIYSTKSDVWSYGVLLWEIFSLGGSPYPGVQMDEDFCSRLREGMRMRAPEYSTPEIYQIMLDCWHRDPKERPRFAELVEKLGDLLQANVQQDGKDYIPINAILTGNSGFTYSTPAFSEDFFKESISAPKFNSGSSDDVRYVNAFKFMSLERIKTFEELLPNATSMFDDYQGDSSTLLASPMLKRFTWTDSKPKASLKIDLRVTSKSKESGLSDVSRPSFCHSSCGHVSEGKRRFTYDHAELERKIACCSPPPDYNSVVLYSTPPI
T3 sequence (P21675 whole entry, the tested form may be a part): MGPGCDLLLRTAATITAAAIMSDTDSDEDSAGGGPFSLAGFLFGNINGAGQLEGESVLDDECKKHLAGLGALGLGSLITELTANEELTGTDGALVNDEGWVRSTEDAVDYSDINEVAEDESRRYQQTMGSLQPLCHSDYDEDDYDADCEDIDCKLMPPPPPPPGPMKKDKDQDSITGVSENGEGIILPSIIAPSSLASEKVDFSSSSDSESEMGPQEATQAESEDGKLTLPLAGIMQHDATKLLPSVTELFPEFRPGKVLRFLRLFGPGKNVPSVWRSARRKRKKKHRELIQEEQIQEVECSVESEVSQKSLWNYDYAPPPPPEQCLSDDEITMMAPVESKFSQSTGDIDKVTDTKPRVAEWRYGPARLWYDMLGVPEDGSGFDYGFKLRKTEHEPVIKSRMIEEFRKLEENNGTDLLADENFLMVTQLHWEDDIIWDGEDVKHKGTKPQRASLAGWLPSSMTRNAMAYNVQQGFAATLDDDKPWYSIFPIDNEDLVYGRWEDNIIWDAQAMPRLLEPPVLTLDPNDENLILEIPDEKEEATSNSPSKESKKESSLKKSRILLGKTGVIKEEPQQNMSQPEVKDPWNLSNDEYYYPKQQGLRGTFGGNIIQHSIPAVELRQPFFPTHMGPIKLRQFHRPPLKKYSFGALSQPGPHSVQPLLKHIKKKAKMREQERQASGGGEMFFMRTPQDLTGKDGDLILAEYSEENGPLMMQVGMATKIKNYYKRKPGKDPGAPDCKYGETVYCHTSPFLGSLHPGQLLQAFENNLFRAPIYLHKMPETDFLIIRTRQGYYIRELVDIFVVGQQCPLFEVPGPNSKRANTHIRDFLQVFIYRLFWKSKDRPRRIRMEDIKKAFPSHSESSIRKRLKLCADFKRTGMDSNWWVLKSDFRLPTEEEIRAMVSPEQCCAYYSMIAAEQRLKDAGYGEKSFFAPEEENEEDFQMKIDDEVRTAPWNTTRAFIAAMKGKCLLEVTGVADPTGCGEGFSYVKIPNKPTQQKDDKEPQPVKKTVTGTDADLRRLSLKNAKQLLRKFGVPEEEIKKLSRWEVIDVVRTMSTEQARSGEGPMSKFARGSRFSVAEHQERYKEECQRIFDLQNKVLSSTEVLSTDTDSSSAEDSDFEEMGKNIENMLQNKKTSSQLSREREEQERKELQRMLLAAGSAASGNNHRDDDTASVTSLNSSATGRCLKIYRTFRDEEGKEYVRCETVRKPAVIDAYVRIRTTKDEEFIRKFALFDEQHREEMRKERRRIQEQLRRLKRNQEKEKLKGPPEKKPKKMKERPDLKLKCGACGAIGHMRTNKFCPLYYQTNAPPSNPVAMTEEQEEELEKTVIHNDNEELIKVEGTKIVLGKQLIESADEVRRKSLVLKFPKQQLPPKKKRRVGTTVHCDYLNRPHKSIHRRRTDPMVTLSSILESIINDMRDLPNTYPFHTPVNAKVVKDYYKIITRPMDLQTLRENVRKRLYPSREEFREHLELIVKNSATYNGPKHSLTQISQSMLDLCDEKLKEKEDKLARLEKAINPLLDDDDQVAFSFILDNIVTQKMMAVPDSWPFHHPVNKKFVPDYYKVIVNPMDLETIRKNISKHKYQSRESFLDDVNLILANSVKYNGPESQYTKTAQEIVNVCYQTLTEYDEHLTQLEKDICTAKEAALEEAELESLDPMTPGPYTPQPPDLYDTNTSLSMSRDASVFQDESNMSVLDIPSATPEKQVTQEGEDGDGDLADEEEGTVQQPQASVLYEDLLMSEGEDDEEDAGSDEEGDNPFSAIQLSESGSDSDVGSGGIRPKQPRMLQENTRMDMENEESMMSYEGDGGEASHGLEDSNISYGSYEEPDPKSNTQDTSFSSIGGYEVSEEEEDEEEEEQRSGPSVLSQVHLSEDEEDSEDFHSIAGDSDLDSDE
T8 sequence (Q9H2G2 whole entry, the tested form may be a part): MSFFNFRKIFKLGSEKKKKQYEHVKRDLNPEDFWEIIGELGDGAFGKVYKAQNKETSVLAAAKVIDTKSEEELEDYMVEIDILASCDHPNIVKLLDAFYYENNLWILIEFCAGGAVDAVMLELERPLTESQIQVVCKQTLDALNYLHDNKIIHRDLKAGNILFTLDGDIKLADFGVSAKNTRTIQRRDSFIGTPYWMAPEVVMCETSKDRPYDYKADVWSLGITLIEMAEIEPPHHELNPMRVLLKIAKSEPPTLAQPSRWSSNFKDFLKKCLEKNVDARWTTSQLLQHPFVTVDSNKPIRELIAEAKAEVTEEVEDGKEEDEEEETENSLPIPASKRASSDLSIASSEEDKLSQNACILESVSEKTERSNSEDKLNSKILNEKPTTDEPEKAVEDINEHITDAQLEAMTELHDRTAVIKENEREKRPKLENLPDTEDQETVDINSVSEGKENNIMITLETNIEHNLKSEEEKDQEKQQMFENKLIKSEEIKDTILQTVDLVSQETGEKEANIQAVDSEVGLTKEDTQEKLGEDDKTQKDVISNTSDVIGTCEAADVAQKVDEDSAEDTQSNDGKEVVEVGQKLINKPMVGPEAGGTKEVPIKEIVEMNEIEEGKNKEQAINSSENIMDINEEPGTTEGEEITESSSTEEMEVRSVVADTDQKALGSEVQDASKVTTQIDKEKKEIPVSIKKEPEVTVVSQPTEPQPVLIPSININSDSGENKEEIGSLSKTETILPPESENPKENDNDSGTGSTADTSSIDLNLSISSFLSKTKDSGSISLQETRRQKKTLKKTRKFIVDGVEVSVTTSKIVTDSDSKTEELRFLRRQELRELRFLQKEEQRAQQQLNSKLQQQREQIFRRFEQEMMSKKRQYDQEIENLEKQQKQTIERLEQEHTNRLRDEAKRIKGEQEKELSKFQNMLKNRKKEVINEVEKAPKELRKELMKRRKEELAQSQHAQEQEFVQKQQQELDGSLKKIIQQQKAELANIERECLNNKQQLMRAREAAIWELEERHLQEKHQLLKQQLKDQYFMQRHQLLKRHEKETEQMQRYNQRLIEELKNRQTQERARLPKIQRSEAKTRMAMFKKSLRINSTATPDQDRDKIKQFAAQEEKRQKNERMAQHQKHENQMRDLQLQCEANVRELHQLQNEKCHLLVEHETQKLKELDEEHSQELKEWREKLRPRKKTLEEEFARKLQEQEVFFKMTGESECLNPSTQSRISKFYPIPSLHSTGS
T6 sequence (Q8TDX7 whole entry, the tested form may be a part): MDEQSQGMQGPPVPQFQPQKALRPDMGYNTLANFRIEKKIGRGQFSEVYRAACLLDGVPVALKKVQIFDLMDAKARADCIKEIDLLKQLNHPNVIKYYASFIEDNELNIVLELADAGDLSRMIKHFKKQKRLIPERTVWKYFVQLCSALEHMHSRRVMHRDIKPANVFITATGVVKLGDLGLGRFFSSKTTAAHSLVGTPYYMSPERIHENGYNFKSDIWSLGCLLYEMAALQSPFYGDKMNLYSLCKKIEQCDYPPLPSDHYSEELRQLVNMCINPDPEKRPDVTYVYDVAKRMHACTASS

| Compound | dTm [1] [K] | dTm [2] [K] | dTm [3] [K] | dTm [4] [K] | dTm [5] [K] | dTm [6] [K] | dTm [7] [K] | dTm [8] [K] |
| --- | --- | --- | --- | --- | --- | --- | --- | --- |
| Cc1ccc(C(=O)Nc2ccc(CN3CCN(C)CC3)c(C(F)(F)F)c2)cc1C#Cc1c[nH]c2ncnc(N3CCOCC3)c12 [Compound 1] | 1.58 | 4.48 | 0.36 | 0.00 | 3.23 | 1.05 | 2.74 | – |
| O=C(Nc1cccc(-c2c[nH]c3ncnc(N4CCOCC4)c23)c1)c1cccn(-c2ccc(F)cc2)c1=O [Compound 4] | -0.28 | 4.33 | -0.36 | 3.00 | 5.74 | -0.10 | -0.07 | 6.46 |
| COc1cc2c(Oc3ccc(NC(=O)C4(C(=O)Nc5ccc(F)cc5)CC4)cc3F)ccnc2cc1OCCCN1CCOCC1 [Foretinib, reference compound] | 0.57 | – | 0.54 | 2.21 | 13.18 | -0.49 | -0.14 | 8.07 |
| Cc1ccc(C(=O)Nc2ccc(CN3CCN(C)CC3)c(C(F)(F)F)c2)cc1C#Cc1cnc2cccnn12 [Ponatinib, reference compound] | – | 18.52 | -0.60 | – | 4.58 | 0.07 | – | – |
| CNC(=O)c1cc(Oc2ccc(NC(=O)Nc3cc(C(C)(C)C)nn3-c3ccc4ncccc4c3)c(F)c2)ccn1 [Rebastinib, reference compound] | – | – | -2.54 | 8.07 | – | 3.06 | 3.53 | 14.21 |
| CN[C@@H]1C[C@H]2O[C@@](C)([C@@H]1OC)n1c3ccccc3c3c4c(c5c6ccccc6n2c5c31)C(=O)NC4 [Staurosporine] | 13.79 | 13.08 | 0.52 | – | 6.40 | – | – | – |

Further lines, results first:

| dTm [1] [K] | dTm [2] [K] | dTm [3] [K] | dTm [4] [K] | dTm [5] [K] | dTm [6] [K] | dTm [7] [K] | dTm [8] [K] | Compound |
| --- | --- | --- | --- | --- | --- | --- | --- | --- |
| 4.64 | 3.90 | 0.23 | 6.94 | 2.38 | -0.93 | 0.36 | 6.64 | O=C(Nc1ccc(F)cc1)C1(C(=O)Nc2cccc(-c3c[nH]c4ncnc(N5CCOCC5)c34)c2)CC1 [Compound 2] |
| 3.89 | 1.73 | 0.30 | 5.72 | 1.86 | 0.23 | 0.40 | 4.64 | Cc1cc(NC(=O)C2(C(=O)Nc3ccc(F)cc3)CC2)cc(-c2c[nH]c3ncnc(N4CCOCC4)c23)c1 [Compound 6] |
| 0.69 | 1.96 | -5.02 | 6.04 | 2.34 | 0.84 | 1.27 | 0.75 | O=C(Nc1cccc(-c2c[nH]c3ncnc(N4CCOCC4)c23)c1)C1(C(=O)Nc2cccc3c2CCC3)CC1 [Compound 11] |
| 6.52 | 3.09 | -0.82 | 7.12 | 2.64 | -0.19 | 0.26 | 5.53 | O=C(Nc1ccccc1)C1(C(=O)Nc2cccc(-c3c[nH]c4ncnc(N5CCOCC5)c34)c2)CC1 [Compound 12] |
| 5.83 | 3.57 | 1.29 | 6.50 | 3.45 | 1.06 | 1.64 | 7.45 | O=C(Nc1ccc(Cl)cc1)C1(C(=O)Nc2cccc(-c3c[nH]c4ncnc(N5CCOCC5)c34)c2)CC1 [Compound 13] |
| 3.04 | 4.17 | 0.34 | 4.57 | 0.92 | -0.37 | -0.61 | 5.25 | Cc1ccc(NC(=O)C2(C(=O)Nc3cccc(-c4c[nH]c5ncnc(N6CCOCC6)c45)c3)CC2)cc1 [Compound 14] |
